According to patent US8729061B2, “Pyrrolidine derivatives” (Hoffmann-La Roche Inc., priority 2011, dated 2014):

How the values were obtained:
Format in all cases: biochemical
human Cathepsin S = human Cathepsin S (Homo sapiens (Human), UniProt P25774); experiment: Cathepsin enzyme inhibition assay (fluorogenic peptide substrate), Cat S; details: enzyme 1 nM, substrate Z-Val-Val-Arg-AMC 20 μM, pH 6.5
Method: (§1) Enzyme activity is measured by observing the increase in fluorescence intensity caused by cleavage of a peptide substrate containing a fluorophore whose emission is quenched in the intact peptide.
(§2) Assay buffer: 100 mM potassium phosphate pH 6.5, EDTA-Na 5 mM, Triton X-100 0.001%, DTT 5 mM.
(§3) Enzymes (all at 1 nM): human and mouse Cathepsin S, Cat K, Cat B, Cat L. Substrate (20 μM): Z-Val-Val-Arg-AMC, except for Cat K which uses Z-Leu-Arg-AMC (both from Bachem).
(§4) Excitation 360 nm, Emission 465 nm.
(§5) Enzyme is added to the substance dilutions in 96-well microtitre plates and the reaction is started with substrate. […] IC50 are calculated by standard methods. Inhibition of human Cat S, mouse Cat S, human Cat K, mouse Cat K, human Cat B, mouse Cat B, human Cat L and mouse Cat L have been measured separately.

human Cat L = human Cat L (Homo sapiens (Human), UniProt P07711); experiment: Cathepsin enzyme inhibition assay (fluorogenic peptide substrate), Cat L; details: enzyme 1 nM, substrate Z-Val-Val-Arg-AMC 20 μM, pH 6.5
Method: as §1, §2, §3, §4, §5

human Cat K = human Cat K (Homo sapiens (Human), UniProt P43235); experiment: Cathepsin enzyme inhibition assay (fluorogenic peptide substrate), Cat K; details: enzyme 1 nM, substrate Z-Leu-Arg-AMC 20 μM, pH 6.5
Method: as §1, §2, §3, §4, §5

human Cat B = human Cat B (Homo sapiens (Human), UniProt P07858); experiment: Cathepsin enzyme inhibition assay (fluorogenic peptide substrate), Cat B; details: enzyme 1 nM, substrate Z-Val-Val-Arg-AMC 20 μM, pH 6.5
Method: as §1, §2, §3, §4, §5

human Cat K, sequence (P43235 115-329): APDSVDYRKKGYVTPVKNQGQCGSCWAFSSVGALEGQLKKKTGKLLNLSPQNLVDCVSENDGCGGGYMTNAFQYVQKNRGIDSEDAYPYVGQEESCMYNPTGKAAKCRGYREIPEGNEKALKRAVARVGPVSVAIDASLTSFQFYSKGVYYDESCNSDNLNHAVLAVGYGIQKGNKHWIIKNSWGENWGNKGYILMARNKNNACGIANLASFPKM
human Cat L, sequence (P07711 114-333): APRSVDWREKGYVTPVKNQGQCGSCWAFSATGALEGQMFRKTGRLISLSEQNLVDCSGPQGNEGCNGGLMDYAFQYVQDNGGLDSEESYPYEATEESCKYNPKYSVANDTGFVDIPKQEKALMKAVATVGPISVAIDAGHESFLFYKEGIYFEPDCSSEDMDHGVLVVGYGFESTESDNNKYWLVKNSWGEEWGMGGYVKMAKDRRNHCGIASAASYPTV
human Cathepsin S, sequence (P25774 115-331): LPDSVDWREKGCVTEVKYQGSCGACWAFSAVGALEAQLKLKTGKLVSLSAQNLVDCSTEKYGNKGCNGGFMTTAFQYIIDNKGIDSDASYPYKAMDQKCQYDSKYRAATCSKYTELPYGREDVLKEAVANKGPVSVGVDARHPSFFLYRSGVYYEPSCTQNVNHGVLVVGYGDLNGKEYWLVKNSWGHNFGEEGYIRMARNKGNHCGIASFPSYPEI

| IC50 (human Cathepsin S) [nM] | IC50 (human Cat L) [nM] | IC50 (human Cat K) [nM] | IC50 (human Cat B) [nM] | Structure (SMILES) |
| --- | --- | --- | --- | --- |
|  | 2590 | 9430 | 22600 | CC[C@H](NC(=O)[C@@H]1C[C@@H](S(=O)(=O)c2ccc(Cl)cc2C)CN1C(=O)OC(C)(C)C)C(=O)C(=O)NC1CC1 [Example 2, (2S,4R)-tert-butyl 4-(4-chloro-2-methylphenylsulfonyl)-2-((S)-1-(cyclopropylamino)-1,2-dioxopentan-3-ylcarbamoyl)pyrrolidine-1-carboxylate] |
| 1 | 1550 | 7430 | 3180 | CC[C@H](NC(=O)[C@@H]1C[C@@H](S(=O)(=O)c2ccccc2C(F)(F)F)CN1c1ccccc1[N+](=O)[O-])C(=O)C(=O)NC1CC1 [Example 3, (2S,4R)—N—((S)-1-(cyclopropylamino)-1,2-dioxopentan-3-yl)-1-(2-nitrophenyl)-4-(2-(trifluoromethyl)phenylsulfonyl)pyrrolidine-2-carboxamide] |
| 2.98 | 551 | 5890 | 2920 | CC[C@H](NC(=O)[C@@H]1C[C@@H](S(=O)(=O)c2ccc(F)cc2C(F)(F)F)CN1c1cc(C)nn1C1CCC1)C(=O)C(=O)NC1CC1 [Example 4, (2S,4R)-1-(1-cyclobutyl-3-methyl-1H-pyrazol-5-yl)-N—((S)-1-(cyclopropylamino)-1,2-dioxopentan-3-yl)-4-(4-fluoro-2-(trifluoromethyl)phenylsulfonyl)pyrrolidine-2-carboxamide] |
| 0.976 | 202 | 168 | 1300 | CC[C@H](NC(=O)[C@@H]1C[C@@H](S(=O)(=O)c2ccc(Br)cc2C(F)(F)F)CN1c1cc(C)nn1C1CCC1)C(=O)C(=O)NC1CC1 [Example 6, (2S,4R)-4-(4-bromo-2-(trifluoromethyl)phenylsulfonyl)-1-(1-cyclobutyl-3-methyl-1H-pyrazol-5-yl)-N—((S)-1-(cyclopropylamino)-1,2-dioxopentan-3-yl)pyrrolidine-2-carboxamide] |
| 3.78 | 3040 | 11300 | 1850 | CC[C@H](NC(=O)[C@@H]1C[C@@H](S(=O)(=O)c2ccccc2C(F)(F)F)CN1C(=O)C1(C(F)(F)F)CC1)C(=O)C(=O)NC1CC1 [Example 7, (2S,4R)—N—((S)-1-(cyclopropylamino)-1,2-dioxopentan-3-yl)-1-(1-(trifluoromethyl)cyclopropanecarbonyl)-4-(2-(trifluoromethyl)phenylsulfonyl)pyrrolidine-2-carboxamide] |
| 0.296 | 4.3 | 27.6 | 62.7 | CC[C@H](NC(=O)[C@@H]1C[C@@H](S(=O)(=O)c2ccccc2Cl)CN1C(=O)C1(c2ccc(Cl)cc2)CC1)C(=O)C(=O)NC1CC1 [Example 8, (2S,4R)-1-(1-(4-chlorophenyl)cyclopropanecarbonyl)-4-(2-chlorophenylsulfonyl)-N—((S)-1-(cyclopropylamino)-1,2-dioxopentan-3-yl)pyrrolidine-2-carboxamide] |
| 0.367 | 4.7 | 19.6 | 43.3 | CCC[C@H](NC(=O)[C@@H]1C[C@@H](S(=O)(=O)c2ccccc2Cl)CN1C(=O)C1(c2ccc(Cl)cc2)CC1)C(=O)C(=O)NC1CC1 [Example 9, (2S,4R)-1-(1-(4-chlorophenyl)cyclopropanecarbonyl)-4-(2-chlorophenylsulfonyl)-N—((S)-1-(cyclopropylamino)-1,2-dioxohexan-3-yl)pyrrolidine-2-carboxamide] |
| 2.88 | 55.4 | 118 | 829 | CC[C@H](NC(=O)[C@@H]1C[C@@H](S(=O)(=O)c2ccc(OCC(F)(F)F)cc2Cl)CN1C(=O)C1(c2ncc(Cl)cc2F)CC1)C(=O)C(=O)NC1CC1 [Example 10, (2S,4R)-1-(1-(5-chloro-3-fluoropyridin-2-yl)cyclopropanecarbonyl)-4-(2-chloro-4-(2,2,2-trifluoroethoxy)phenylsulfonyl)-N—((S)-1-(cyclopropylamino)-1,2-dioxopentan-3-yl)pyrrolidine-2-carboxamide] |
| 1.38 | 63.2 | 390 | 291 | CC[C@H](NC(=O)[C@@H]1C[C@@H](S(=O)(=O)c2ccc(OCC(F)(F)F)cc2C(F)(F)F)CN1C(=O)C1(c2ccc(Cl)cc2)CC1)C(=O)C(=O)NC1CC1 [Example 11] |
| 0.704 | 11.3 | 67.9 | 142 | CC[C@H](NC(=O)[C@@H]1C[C@@H](S(=O)(=O)c2ccccc2Cl)CN1C(=O)C1(c2ccc(Cl)cc2F)CC1)C(=O)C(=O)NC1CC1 [Example 13, (2S,4R)-1-(1-(4-chloro-2-fluorophenyl)cyclopropanecarbonyl)-4-(2-chlorophenylsulfonyl)-N—((S)-1-(cyclopropylamino)-1,2-dioxopentan-3-yl)pyrrolidine-2-carboxamide] |
| 0.652 | 10.1 | 30.1 |  | CC[C@H](NC(=O)[C@@H]1C[C@@H](S(=O)(=O)c2ccccc2Cl)CN1C(=O)C1(c2ccc(I)cc2)CC1)C(=O)C(=O)NC1CC1 [Example 17, (2S,4R)-4-(2-chlorophenylsulfonyl)-N—((S)-1-(cyclopropylamino)-1,2-dioxopentan-3-yl)-1-(1-(4-iodophenyl)cyclopropanecarbonyl)pyrrolidine-2-carboxamide] |

The next lines start with the molecule.

| Structure (SMILES) | IC50 (human Cathepsin S) [nM] | IC50 (human Cat L) [nM] | IC50 (human Cat K) [nM] | IC50 (human Cat B) [nM] |
| --- | --- | --- | --- | --- |
| CC[C@H](NC(=O)[C@@H]1C[C@@H](S(=O)(=O)c2ccc(C)cc2C)CN1C(=O)OC(C)(C)C)C(=O)C(=O)NC1CC1 [Example 1, (2S,4R)-tert-butyl 2-((S)-1-(cyclopropylamino)-1,2-dioxopentan-3-ylcarbamoyl)-4-(2,4-dimethylphenylsulfonyl)pyrrolidine-1-carboxylate] | 0.829 | 1910 | 7900 | 11100 |
| CC[C@H](NC(=O)[C@@H]1C[C@@H](S(=O)(=O)c2ccccc2C(F)(F)F)CN1c1ccccc1[N+](=O)[O-])C(=O)c1nc2ccccc2o1 [Example 5, (2S,4R)-1-(2-Nitro-phenyl)-4-(2-trifluoromethyl-benzenesulfonyl)-pyrrolidine-2-carboxylic acid [(S)-1-(benzooxazole-2-carbonyl)-propyl]-amide] | 1.83 |  |  | 106000 |
| CC[C@H](NC(=O)[C@@H]1C[C@@H](S(=O)(=O)c2ccccc2Cl)CN1C(=O)C1(c2ccc(Cl)cc2)CC1)C(=O)c1nc2ccccc2o1 [Example 12, (2S,4R)—N—((S)-1-(benzo[d]oxazol-2-yl)-1-oxobutan-2-yl)-1-(1-(4-chlorophenyl)cyclopropanecarbonyl)-4-(2-chlorophenylsulfonyl)pyrrolidine-2-carboxamide] | 0.737 | 21.2 | 360 | 183 |
| CC(C)[C@H](NC(=O)[C@@H]1C[C@@H](S(=O)(=O)c2ccccc2Cl)CN1C(=O)C1(c2ccc(Cl)cc2)CC1)C(=O)C(=O)NC1CC1 [Example 28, (2S,4R)-1-(1-(4-chlorophenyl)cyclopropanecarbonyl)-4-(2-chlorophenylsulfonyl)-N—((S)-1-(cyclopropylamino)-4-methyl-1,2-dioxopentan-3-yl)pyrrolidine-2-carboxamide] | 0.328 | 5.2 |  | 97.3 |
| CCCCNC(=O)C(=O)[C@H](CC)NC(=O)[C@@H]1C[C@@H](S(=O)(=O)c2ccccc2Cl)CN1C(=O)C1(c2ccc(Cl)cc2)CC1 [Example 31, (2S,4R)—N—((S)-1-(butylamino)-1,2-dioxopentan-3-yl)-1-(1-(4-chlorophenyl)cyclopropanecarbonyl)-4-(2-chlorophenylsulfonyl)pyrrolidine-2-carboxamide] |  | 11.2 | 35.6 | 47.8 |
| CCC[C@H](NC(=O)[C@@H]1C[C@@H](S(=O)(=O)c2ccc(Cl)cc2Cl)CN1C(=O)C1(c2ccc(Cl)cc2)CC1)C(=O)C(=O)NC1CC1 [Example 42, (2S,4R)-1-(1-(4-chlorophenyl)cyclopropanecarbonyl)-N—((S)-1-(cyclopropylamino)-1,2-dioxohexan-3-yl)-4-(2,4-dichlorophenylsulfonyl)pyrrolidine-2-carboxamide] | 0.634 |  | 28.7 | 115 |
| CCNC(=O)C(=O)[C@H](CC)NC(=O)[C@@H]1C[C@@H](S(=O)(=O)c2ccccc2Cl)CN1C(=O)C1(c2ccc(Cl)cc2)CC1 [Example 43, (2S,4R)-1-(1-(4-chlorophenyl)cyclopropanecarbonyl)-4-(2-chlorophenylsulfonyl)-N—((S)-1-(ethylamino)-1,2-dioxopentan-3-yl)pyrrolidine-2-carboxamide] | 0.508 | 13.6 |  | 112 |
| CC(C)[C@H](NC(=O)[C@@H]1C[C@@H](S(=O)(=O)c2ccccc2Cl)CN1C(=O)C1(c2ncc(Cl)cc2F)CC1)C(=O)C(=O)NC1CC1 [Example 58, (2S,4R)-1-(1-(5-chloro-3-fluoropyridin-2-yl)cyclopropanecarbonyl)-4-(2-chlorophenylsulfonyl)-N—((S)-1-(cyclopropylamino)-4-methyl-1,2-dioxopentan-3-yl)pyrrolidine-2-carboxamide] |  | 0.9 | 49.1 | 323 |
